Test results taken from patent publication US10106853B2, “CUL4B as predictive biomarker for cancer treatment” (CORNELL UNIVERSITY, priority 2012, dated 2018).

Experiments:
γH2AX in BT474 cells = experiment: Western blot analysis for γH2AX; type: cell-based, Human; conditions: CPT-treated BT474 cells with CUL4B silencing via shRNA vs control; 2 μM CPT
Description: FIG. 3. CUL4B^k/d BT474 cells are susceptible to CPT-induced DNA damage. A) Persistent DNA damage in CPT-treated BT474-CUL4B^k/d cells. Control or CUL4B^k/d BT474 cells were treated with 2 μM of CPT for the indicated time periods, replenished with CPT-free fresh medium, incubated at 37° C. for 1 hour to repair DNA damage, and subjected to immunoblotting with the anti-γH2AX antibody to determine the extent of DNA damage. B) Immunofluorescent detection of γH2AX foci in control or CUL4B^k/d BT474 cells following CPT treatment. BT474 cells were infected with lentiviral control shRNA (shCtrl) or shCUL4B, treated with 2 μM CPT for 2 hours and replenished with CPT-free fresh medium, incubated at 37° C. for 1 hour to repair DNA damage. γH2AX foci were detected by immunofluorescent assay with the rabbit anti-γH2AX antibody and goat anti-rabbit secondary antibody conjugated with cy3 (red). Nuclei were stained with DAPI (blue). C, D) Percentage of γH2AX-positive cells and number of persistent γH2AX foci in a total of 300 γH2AX-positive cells. All values were presented as mean±S.E. Statistical significance was assessed by a two-tailed unpaired Student t-test (***: p<0.001). […]

BT474 cells = experiment: Apoptosis by Western blotting of cleaved caspase-3 and PARP; type: cell-based, Human; conditions: CUL4B-silenced BT474 cells vs control cells
Description: FIG. 4. Marked enhancement of apoptosis in BT474-CUL4B^k/d cells following CPT treatment. A, B) Control (shCtrl) or CUL4B^k/d BT474 (shCUL4B) cells were treated with indicated concentrations of CPT for 72 hours (A) or 100 nM CPT for 1, 2 and 3 days (B). Cells were then lysed and immunoblotted with antibodies against native or cleaved caspase 3 or PARP to measure the induction of apoptosis. C) Control, CUL4A^k/d and CUL4B^k/d BT474 cells were treated with 100 nM CPT for 3 days. Cell lysates were prepared and immunoblotted with antibodies against native or cleaved PARP.
DNA double stranded breaks are one of the most cytotoxic lesions as persistence of γH2AX foci after the initial induction of DNA damage leads to apoptosis. To examine whether CUL4B knockdown affects the sensitivity of breast cancer cells to CPT-induced apoptosis, BT474 cells were treated with CPT and analyzed for induction of apoptosis, as exemplified by cleavage of caspase-3 and PARP.

In the case of `CC[C@@]1(O)C(=O)OCc2c1cc1n(c2=O)Cc2cc3ccccc3nc2-1` [CPT, (S)-4-ethyl-4-hydroxy-1H-pyrano[3′,4′:6,7]indolizino[1,2-b]quinoline-3,14-(4H, 12H)-dione], the “Levels of γH2AX (Western blotting)” value (γH2AX in BT474 cells) is reported as “elevated” and the “Induction of apoptosis (cleaved caspase-3 and PARP) post-CPT treatment” value (BT474 cells) is reported as “robust induction of apoptosis”.
